Read-outs that look alike come from different tables or passages of the source.
Tests used:
rat mGlu3 receptor = rat mGlu3 receptor (Rattus norvegicus (Rat), UniProt P31422); assay: mGlu3 in vitro GIRK thallium flux assay; assay type: cell-based; settings: NAM; 2.5 min compound incubation; EC80 glutamate; HEK-293 GIRK cells
Summary of the method: (§1)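 Cells expressing rat mGlu2 or mGlu3 with GIRK, plated overnight at 37 °C. Test compounds (0.3% DMSO, 10-point 1:3 series) preincubated 2.5 or 60 min, then thallium buffer plus EC80 glutamate added. Fluorescence slope 5–15 s after addition, normalised to vehicle and maximal agonist, fitted by four-parameter logistic.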

rat mGlu2 receptor = rat mGlu2 receptor (Rattus norvegicus (Rat), UniProt P31421); assay: mGlu2 in vitro GIRK thallium flux assay; assay type: cell-based; settings: NAM, EC80 glutamate, HEK-293 GIRK cells
Summary of the method: as §1

[1] = 2.5 min compound incubation, read-out: mGlu2 EC50 (μM) (2.5 min)
[2] = mGlu2 EC50 (μM) (60 min), 60 min compound incubation
[3] = read-out: mGlu2 EC50 (μM) (60 min), 60 min compound incubation

rat mGlu2 receptor, sequence (P31421 19-872): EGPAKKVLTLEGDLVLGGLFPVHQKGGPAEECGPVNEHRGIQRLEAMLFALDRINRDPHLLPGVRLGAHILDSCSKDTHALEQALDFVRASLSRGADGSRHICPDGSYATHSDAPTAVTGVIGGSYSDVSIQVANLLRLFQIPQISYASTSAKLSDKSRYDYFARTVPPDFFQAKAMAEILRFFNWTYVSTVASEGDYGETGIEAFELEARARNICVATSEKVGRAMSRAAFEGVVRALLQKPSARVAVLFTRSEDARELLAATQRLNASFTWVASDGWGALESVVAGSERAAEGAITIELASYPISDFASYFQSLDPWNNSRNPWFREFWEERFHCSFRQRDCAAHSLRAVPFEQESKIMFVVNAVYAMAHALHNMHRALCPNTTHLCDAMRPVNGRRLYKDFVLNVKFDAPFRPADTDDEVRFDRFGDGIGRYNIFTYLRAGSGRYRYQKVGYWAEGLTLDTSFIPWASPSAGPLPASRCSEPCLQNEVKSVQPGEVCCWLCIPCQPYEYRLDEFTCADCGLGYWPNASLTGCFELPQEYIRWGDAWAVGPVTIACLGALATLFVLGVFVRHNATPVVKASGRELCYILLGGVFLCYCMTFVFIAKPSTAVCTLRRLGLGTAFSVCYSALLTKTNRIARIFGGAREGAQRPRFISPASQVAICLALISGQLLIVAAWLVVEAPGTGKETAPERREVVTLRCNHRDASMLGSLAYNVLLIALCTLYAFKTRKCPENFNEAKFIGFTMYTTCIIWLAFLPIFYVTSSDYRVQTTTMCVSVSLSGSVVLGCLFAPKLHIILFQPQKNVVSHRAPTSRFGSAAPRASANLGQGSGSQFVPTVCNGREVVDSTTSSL
rat mGlu3 receptor, sequence (P31422 23-879): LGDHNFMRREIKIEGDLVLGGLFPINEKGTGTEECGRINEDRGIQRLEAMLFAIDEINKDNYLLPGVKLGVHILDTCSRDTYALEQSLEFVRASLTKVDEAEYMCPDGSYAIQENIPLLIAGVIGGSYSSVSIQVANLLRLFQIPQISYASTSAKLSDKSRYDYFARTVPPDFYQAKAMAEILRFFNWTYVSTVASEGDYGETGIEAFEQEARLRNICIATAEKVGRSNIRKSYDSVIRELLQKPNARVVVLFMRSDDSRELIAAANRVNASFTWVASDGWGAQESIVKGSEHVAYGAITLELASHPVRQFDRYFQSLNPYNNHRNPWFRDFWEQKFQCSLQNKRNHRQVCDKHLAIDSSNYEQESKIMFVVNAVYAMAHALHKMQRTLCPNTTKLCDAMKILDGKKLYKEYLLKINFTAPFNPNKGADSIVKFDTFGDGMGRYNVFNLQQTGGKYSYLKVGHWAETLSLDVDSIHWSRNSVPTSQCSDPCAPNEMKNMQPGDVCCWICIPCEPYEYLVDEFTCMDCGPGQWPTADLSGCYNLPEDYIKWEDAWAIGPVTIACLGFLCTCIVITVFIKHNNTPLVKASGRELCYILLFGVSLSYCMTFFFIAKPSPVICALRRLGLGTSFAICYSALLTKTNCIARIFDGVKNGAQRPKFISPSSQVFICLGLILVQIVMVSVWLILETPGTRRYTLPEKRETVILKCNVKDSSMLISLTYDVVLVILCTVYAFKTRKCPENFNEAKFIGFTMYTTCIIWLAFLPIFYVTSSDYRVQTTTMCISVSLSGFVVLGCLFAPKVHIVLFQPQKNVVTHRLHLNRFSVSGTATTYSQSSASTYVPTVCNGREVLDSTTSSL

SMILES | EC50 (rat mGlu3 receptor) | EC50 (rat mGlu2 receptor; [1]) | EC50 (rat mGlu2 receptor; [2]) | EC50 (rat mGlu2 receptor; [3])
O=C(O)c1cccc(-c2cccc(-c3csc(/C=C/c4ccccc4)n3)c2)c1 [Example 36, (E)-3′-(2-Styrylthiazol-4-yl)biphenyl-3-carboxylic Acid] | > 10 µM | 3.47 µM | > 10 µM | 
c1ccc(-c2nc(-c3cccc(-c4cccc(-c5nn[nH]n5)c4)c3)cs2)cc1 [Example 37, 4-(3′-(2H-Tetrazol-5-yl)biphenyl-3-yl)-2-phenylthiazole] | > 10 µM | 2.98 µM |  | 1.72 µM
O=C(O)c1cccc(-c2cccc(-c3nsc(-c4ccccc4)n3)c2)c1 [Example 39, 3′-(5-Phenyl-1,2,4-thiadiazol-3-yl)biphenyl-3-carboxylic Acid] | 2.28 µM | 0.32 µM | 0.05 µM | 
O=C(O)c1cc(F)cc(-c2cccc(-c3nsc(-c4ccccc4)n3)c2)c1 [Example 40, 5-Fluoro-3′-(5-phenyl-1,2,4-thiadiazol-3-yl)biphenyl-3-carboxylic Acid] | 2.78 µM | 0.4 µM | 0.1 µM | 
O=C(O)c1ccc(F)c(-c2cccc(-c3nsc(-c4ccccc4)n3)c2)c1 [Example 41, 6-Fluoro-3′-(5-phenyl-1,2,4-thiadiazol-3-yl)biphenyl-3-carboxylic Acid] | > 10 µM | 0.89 µM | 0.11 µM | 
O=C(O)c1cc(-c2cccc(-c3nsc(-c4ccoc4)n3)c2)ccc1F [Example 42, 4-Fluoro-3′-(5-(furan-3-yl)-1,2,4-thiadiazol-3-yl)biphenyl-3-carboxylic Acid] | > 10 µM | 3.63 µM | 3.71 µM | 
O=C(O)c1cccc(-c2cccc(-c3cc(-c4ccccc4)sn3)c2)c1 [Example 44, 3′-(5-Phenylisothiazol-3-yl)-[1,1′-biphenyl]-3-carboxylic Acid] | > 10 µM | 0.68 µM |  | 0.18 µM
O=C(O)c1cc(-c2cccc(-c3csc(-c4ccccc4)c3)c2)ccc1F [Example 45, 4-Fluoro-3′-(5-phenylthiophen-3-yl)-[1,1′-biphenyl]-3-carboxylic Acid] | > 10 µM | > 10 µM | > 10 µM | 
O=C(O)c1cccc(-c2cccc(-c3coc(-c4ccccc4)c3)c2)c1 [Example 46, 3′-(5-phenylfuran-3-yl)biphenyl-3-carboxylic Acid] | > 30 µM | > 10 µM | > 10 µM | 
O=C(O)c1cccc(-c2cccc(-c3coc(-c4ccccc4)n3)c2)c1 [Example 47, 3′-(2-Phenyloxazol-4-yl)-[1,1′-biphenyl]-3-carboxylic Acid] | > 30 µM | > 10 µM | > 10 µM | 
O=C(O)c1cccc(-c2cccc(-c3noc(-c4ccccc4)n3)c2)c1 [Example 48, 3′-(5-Phenyl-1,2,4-oxadiazol-3-yl)-[1,1′-biphenyl]-3-carboxylic Acid] | > 10 µM | 1.33 µM | 0.79 µM | 
O=C(O)c1cccc(-c2cccc(-c3nc(-c4ccccc4)n(-c4ccccc4)n3)c2)c1 [Example 49A, 3′-(1,5-Diphenyl-1H-1,2,4-triazol-3-yl)-[1,1′-biphenyl]-3-carboxylic Acid] | 1.36 µM | > 10 µM | > 10 µM | 
Cn1nc(-c2cccc(-c3cccc(C(=O)O)c3)c2)nc1-c1ccccc1 [Example 50, 3′-(1-Methyl-5-phenyl-1H-1,2,4-triazol-3-yl)-[1,1′-biphenyl]-3-carboxylic Acid] | > 10 µM | 0.59 µM | 1.48 µM | 
O=C(O)c1cc(-c2cccc(-c3nc(-c4ccccc4)n(-c4ccccc4)n3)c2)ccc1F [Example 51, 3′-(1,5-Diphenyl-1H-1,2,4-triazol-3-yl)-4-fluoro-[1,1′-biphenyl]-3-carboxylic acid] | 5.8 µM | > 10 µM | > 10 µM | 
O=C(O)c1cc(F)cc(-c2cccc(-c3nc(-c4ccccc4)n(-c4ccccc4)n3)c2)c1 [Example 52, 3′-(1,5-Diphenyl-1H-1,2,4-triazol-3-yl)-5-fluorobiphenyl-3-carboxylic Acid] | 3.11 µM | > 10 µM | > 10 µM | 
O=C(O)c1cccc(-c2cccc(-c3nc(-c4cccs4)n(-c4ccccc4)n3)c2)c1 [Example 53, 3′-(1-Phenyl-5-(thiophen-2-yl)-1H-1,2,4-triazol-3-yl)-[1,1′-biphenyl]-3-carboxylic Acid] | 4.29 µM | > 10 µM | 3.67 µM | 
O=C(O)c1cccc(-c2cccc(-c3nc(-c4ccccc4)n(Cc4ccccc4)n3)c2)c1 [Example 54, 3′-(1-Benzyl-5-phenyl-1H-1,2,4-triazol-3-yl)-[1,1′-biphenyl]-3-carboxylic Acid] | 3.9 µM | > 10 µM | 2.71 µM | 

SMILES | EC50 (rat mGlu3 receptor) | EC50 (rat mGlu2 receptor; [1]) | EC50 (rat mGlu2 receptor; [2]) | EC50 (rat mGlu2 receptor; [3])
COc1ccc(-n2nc(-c3cccc(-c4cccc(C(=O)O)c4)c3)nc2-c2ccccc2)cc1 [Example 55, 3′-(1-(4-Methoxyphenyl)-5-phenyl-1H-1,2,4-triazol-3-yl)-[1,1′-biphenyl]-3-carboxylic Acid] | 2.96 µM | > 10 µM | 6.58 µM | 
O=C(O)c1cccc(-c2cccc(-c3nc(-c4ccccc4)n(-c4cccc(F)c4)n3)c2)c1 [Example 56, 3′-(1-(3-Fluorophenyl)-5-phenyl-1H-1,2,4-triazol-3-yl)-[1,1′-biphenyl]-3-carboxylic Acid] | > 10 µM | 3.22 µM | > 10 µM | 
O=C(O)c1cccc(-c2cccc(-c3nc(-c4ccccc4)n(-c4cccc5ccccc45)n3)c2)c1 [Example 57, 3′-(1-(Naphthalen-1-yl)-5-phenyl-1H-1,2,4-triazol-3-yl)-[1,1′-biphenyl]-3-carboxylic Acid] | > 10 µM | > 10 µM | > 10 µM | 
O=C(O)c1cccc(-c2cccc(-c3nc(-c4ccc(C(F)(F)F)nc4)n(-c4ccccc4)n3)c2)c1 [Example 58, 3′-(1-Phenyl-5-(6-(trifluoromethyl)pyridin-3-yl)-1H-1,2,4-triazol-3-yl)-[1,1′-biphenyl]-3-carboxylic Acid] | 5.56 µM | > 10 µM | > 10 µM | 
O=C(O)c1cccc(-c2cccc(-c3nc(-c4ccoc4)n(-c4ccccc4)n3)c2)c1 [Example 59, 3′-(5-(Furan-3-yl)-1-phenyl-1H-1,2,4-triazol-3-yl)-[1,1′-biphenyl]-3-carboxylic acid] | > 10 µM | > 10 µM | 3.78 µM | 
O=C(O)c1ccc(-c2cccc(-c3nc(-c4ccccc4)n(-c4ccccc4)n3)c2)cc1 [Example 60, 3′-(1,5-Diphenyl-1H-1,2,4-triazol-3-yl)-[1,1′-biphenyl]-4-carboxylic Acid] | 5.3 µM | > 10 µM | > 10 µM | 
O=C(O)c1ccccc1-c1cccc(-c2nc(-c3ccccc3)n(-c3ccccc3)n2)c1 [Example 61, 3′-(1,5-Diphenyl-1H-1,2,4-triazol-3-yl)-[1,1′-biphenyl]-2-carboxylic Acid] | > 10 µM | > 30 µM |  | > 30 µM
O=C(O)c1ccoc1-c1cccc(-c2nc(-c3ccccc3)n(-c3ccccc3)n2)c1 [Example 62, 2-(3-(1,5-Diphenyl-1H-1,2,4-triazol-3-yl)phenyl)furan-3-carboxylic Acid] | 0.21 µM | > 10 µM | > 30 µM | 
O=C(O)c1ccc(F)c(-c2cccc(-c3nc(-c4ccccc4)n(-c4ccccc4)n3)c2)c1 [Example 63, 3′-(1,5-Diphenyl-1H-1,2,4-triazol-3-yl)-6-fluoro-[1,1′-biphenyl]-3-carboxylic acid] | 4.45 µM | > 10 µM | > 10 µM | 
CC(C)n1nc(-c2cccc(-c3cccc(C(=O)O)c3)c2)nc1-c1ccccc1 [Example 64, 3′-(1-Isopropyl-5-phenyl-1H-1,2,4-triazol-3-yl)-[1,1′-biphenyl]-3-carboxylic acid] | > 10 µM | > 10 µM | > 30 µM | 
O=C(O)c1cccc(-c2cccc(-c3n[nH]c(-c4ccccc4)n3)c2)c1 [Example 65, 3′-(5-Phenyl-1H-1,2,4-triazol-3-yl)-[1,1′-biphenyl]-3-carboxylic Acid] | > 30 µM | > 10 µM | > 30 µM | 
O=C(O)c1cccc(-c2cccc(-c3nc(-c4ccccc4)nn3-c3ccccc3)c2)c1 [Example 66, 3′-(1,3-Diphenyl-1H-1,2,4-triazol-5-yl)-[1,1′-biphenyl]-3-carboxylic Acid] | > 10 µM | > 10 µM |  | > 10 µM
O=C(O)c1cccc(-c2cccc(-c3cn(-c4ccccc4)c(-c4ccccc4)n3)c2)c1 [Example 67, 3′-(1,2-Diphenyl-1H-imidazol-4-yl)-[1,1′-biphenyl]-3-carboxylic Acid] | > 10 µM | > 10 µM |  | > 10 µM
O=C(O)c1cccc(-c2cccc(-c3cc(-c4ccccc4)[nH]n3)c2)c1 [Example 68, 3′-(5-Phenyl-1H-pyrazol-3-yl)-[1,1′-biphenyl]-3-carboxylic Acid] | > 10 µM | > 10 µM |  | > 30 µM
O=C(O)c1cccc(-c2cccc(-c3nc(-c4ccc(C(F)(F)F)nc4)cc(C(F)(F)F)n3)c2)c1 [Example 69, 3′-(4-(Trifluoromethyl)-6-(6-(trifluoromethyl)pyridin-3-yl)pyrimidin-2-yl)biphenyl-3-carboxylic Acid] | 1.07 µM | 0.95 µM |  | 0.11 µM
O=C(O)c1cc(-c2cccc(-c3nc(-c4ccc(C(F)(F)F)nc4)cc(C(F)(F)F)n3)c2)ccc1Cl [Example 70, 4-Chloro-3′-(4-(trifluoromethyl)-6-(6-(trifluoromethyl)pyridin-3-yl)pyrimidin-2-yl)biphenyl-3-carboxylic Acid] | 1.58 µM | 1.26 µM |  | 0.2 µM

— US9969726B2, “Metabotropic glutamate receptor negative allosteric modulators (NAMS) and uses thereof” (Sanford-Burnham Medical Research Institute, priority 2014, dated 2018)
